Where two headings read alike, the source gives them in different places. Starred links: 1 amine or outer side, 2 acyl side, 3 side chain; linkers in the order of their positions; H or OH if unused. Residues, ends and D or L forms follow the SMILES beside them. Groups on a side chain read outwards from the residue. *: point of attachment. γGlu = O=C(O)[C@H](CCC(=O)[*:2])N[*:1]; Palmitoyl = CCCCCCCCCCCCCCCC(=O)*

As a reminder, the EC50 is the concentration giving half of the maximal effect. A lower EC50 goes with greater potency.

The format of data set [1] is in vitro ADME, rat. As for the experimental part:
In this example, the serum stability of the incretin analogue […] was determined by the following steps: (1) The incretin analogues […] and the control (Dulaglutide) were formulated with 5 mM Tris-HCl, pH 8.5, and 0.02% TWEEN-80 solution into solutions at a concertration of 1.0 mg/ml, which were sterilized and filtered (0.22 μm, Millipore SLGP033RB), then diluted 10-fold with rat serum, mixed evenly and divided into sterile centrifuge tubes; […] (3) The GLP-1R agonist activity was detected.

Data set [2] has as its target T1, GLP-1R (Homo sapiens, UniProt P43220).
T1 construct: expressed in transfected cells
Briefly: GLP-1R agonist activity assay, luciferase reporter gene in stably transfected CHO-K1 cells. The format is cell-based. To be noted: CRE-luciferase reporter, stimulation for 6 h. From the text:
GLP-1R agonist activity was detected using luciferase reporter gene assay (Jonathan W Day et, al.: Nat Chem Biol. 2009 October; 5 (10): 749-57). Humanized GLP-1R gene was cloned into mammalian cell expression plasmid pCDNA3.1 to construct recombinant expression plasmid pCDNA3.1-GLP-1R, and at the same time, luciferase full-length gene was cloned into pCRE plasmid to get pCRE-Luc recombinant plasmid. The pcDNA3.1-GLP-1R and pCRE-Luc plasmids were transfected into CHO-K1 cells at a molar ratio of 1:10, and the stably transfected cell strains were screened. Cells were cultured in a 9-cm cell culture dish with DMEM/F12 medium containing 10% FBS and 300 μg/ml G418. When the confluence reached about 90%, the culture supernatant was discarded. […] 2 ml DMEM/F12 medium containing 10% FBS and 300 μg/ml G418 was added for resuspension, and the number of cells was counted. […] Dulaglutide (Trade name: Trulicity®)) were diluted with DMEM/F12 medium containing 1% BSA to a series of defined concentration, 27 added into cell culture wells at 100 μl/well, and detected after stimulation for 6 h. The samples were detected according to the specification of Lucifersae reporter kit (Ray Biotech, 29 Cat: 68-LuciR-5200). […]
(A reporter such as luciferase makes a cellular process visible.)

The conditions of data set [3]: cited from earlier work.

T1 sequence (P43220 24-463): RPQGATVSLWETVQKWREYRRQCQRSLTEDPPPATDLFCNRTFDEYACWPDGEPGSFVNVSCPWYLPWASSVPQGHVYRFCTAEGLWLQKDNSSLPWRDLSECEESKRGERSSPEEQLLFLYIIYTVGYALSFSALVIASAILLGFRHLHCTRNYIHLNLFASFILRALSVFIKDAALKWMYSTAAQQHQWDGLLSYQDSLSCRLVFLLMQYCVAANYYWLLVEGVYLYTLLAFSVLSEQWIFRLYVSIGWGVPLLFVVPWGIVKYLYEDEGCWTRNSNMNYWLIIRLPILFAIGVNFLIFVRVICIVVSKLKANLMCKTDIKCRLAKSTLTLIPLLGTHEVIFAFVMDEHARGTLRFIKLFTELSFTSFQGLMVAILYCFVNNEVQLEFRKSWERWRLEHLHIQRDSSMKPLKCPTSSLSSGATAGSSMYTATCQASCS

Regarding `CCCCCCCCCCCCCCCC(=O)N[C@@H](CCC(=O)NCCCC[C@H](NC(=O)[C@H](CC(=O)O)NC(=O)[C@H](CO)NC(=O)[C@@H](NC(=O)[C@H](Cc1ccccc1)NC(=O)[C@@H](NC(=O)CNC(=O)[C@H](CCC(=O)O)NC(=O)[C@H](CO)NC(=O)[C@@H](N)Cc1ccc(O)cc1)[C@@H](C)O)[C@@H](C)O)C(=O)N[C@@H](CO)C(=O)N[C@@H](CCCCN)C(=O)N[C@@H](Cc1ccc(O)cc1)C(=O)N[C@@H](CC(C)C)C(=O)N[C@@H](CC(=O)O)C(=O)N[C@@H](CO)C(=O)N[C@@H](CCC(N)=O)C(=O)N[C@@H](C)C(=O)N[C@@H](C)C(=O)N[C@@H](CCC(N)=O)C(=O)N[C@@H](CC(=O)O)C(=O)N[C@@H](Cc1ccccc1)C(=O)N[C@H](C(=O)N[C@@H](CCC(N)=O)C(=O)N[C@@H](Cc1c[nH]c2ccccc12)C(=O)N[C@@H](CC(C)C)C(=O)N[C@@H](CC(C)C)C(=O)N[C@@H](C)C(=O)NCC(=O)NCC(=O)N1CCC[C@H]1C(=O)N[C@@H](CO)C(=O)N[C@@H](CO)C(=O)NCC(=O)N[C@@H](C)C(=O)N1CCC[C@H]1C(=O)N1CCC[C@H]1C(=O)N1CCC[C@H]1C(=O)N[C@@H](CO)C(N)=O)C(C)C)C(=O)O` [P3YELAN] (H-YSEGTFTSDK([γGlu-Palmitoyl])SKYLDSQAAQDFVQWLLAGGPSSGAPPPS-NH2), the “residual GLP-1R agonist activity over time in serum” value in data set [1] is “maintains a higher GLP-1R agonist activity in a long time”. Take Dulaglutide: it took 0.01 nM to reach a half-maximal effect in data set [2] (EC50). Take Semeglutide: the “average clinical weight loss” value was 4.2 kg in data set [3] (0.5 mg treatment group) and 5.5 kg in data set [3] (1.0 mg treatment group).
